Reference: patent US10899738B2 (THE REGENTS OF THE UNIVERSITY OF MICHIGAN, priority 2016, dated 2021)

Molecular target: menin protein (Homo sapiens (Human), UniProt O00255)
Assay: biochemical
Assay type: binding
Settings: FP competitive binding; menin protein 4 nM, FAM-MM2 probe 2 nM
Summary of the method: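 Competitive fluorescence polarization assay using FAM-labelled MLL1 peptide probe FAM-MM2 (2 nM final) preincubated with menin (4 nM final) in PBS with 0.02% bovine γ-globulin, 4% DMSO and 0.01% Triton X-100. Compounds were added and incubated 30 min at room temperature. IC50 came from nonlinear regression of competition curves, with Ki also derived.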

Chain of menin protein (O00255 whole entry): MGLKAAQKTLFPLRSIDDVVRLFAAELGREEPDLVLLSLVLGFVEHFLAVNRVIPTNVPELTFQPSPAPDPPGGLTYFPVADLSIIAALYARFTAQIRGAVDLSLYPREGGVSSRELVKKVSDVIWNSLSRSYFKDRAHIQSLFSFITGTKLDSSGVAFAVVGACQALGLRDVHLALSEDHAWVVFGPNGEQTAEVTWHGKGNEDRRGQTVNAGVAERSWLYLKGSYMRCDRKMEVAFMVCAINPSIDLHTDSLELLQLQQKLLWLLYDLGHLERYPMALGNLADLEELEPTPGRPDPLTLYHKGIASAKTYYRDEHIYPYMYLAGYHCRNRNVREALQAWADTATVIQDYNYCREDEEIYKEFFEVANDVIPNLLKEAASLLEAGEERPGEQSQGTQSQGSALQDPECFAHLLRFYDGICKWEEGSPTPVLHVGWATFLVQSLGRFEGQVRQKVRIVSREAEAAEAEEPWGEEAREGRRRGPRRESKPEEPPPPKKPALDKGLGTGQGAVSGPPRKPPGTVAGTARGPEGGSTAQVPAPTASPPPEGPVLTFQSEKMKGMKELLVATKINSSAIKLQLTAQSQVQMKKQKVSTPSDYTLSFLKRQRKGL

Row | SMILES | Menin Binding Affinity IC50 (μM)
1 | O=S(=O)(c1ccc(-n2ccc(CN3CCC(C4(C5CCCC5)NCCc5c(F)cccc54)CC3)c2)cc1)C1CC1 (stereo not drawn) [compound 123, 1-cyclopentyl-1-(1-((1-(4-(cyclopropylsulfonyl)phenyl)-1H-pyrrol-3-yl)methyl)piperidin-4-yl)-5-fluoro-1,2,3,4-tetrahydroisoquinoline] | No inhibition
2 | CC(=O)O[C@H]1CCC[C@@H]1C(C#N)(c1ccccc1)C1CCN(CC#Cc2ccc(C#N)cc2)CC1 (mixture of isomers) [compound 386, rac-(1S,2R)-2-(cyano(1-(3-(4-cyanophenyl)prop-2-yn-1-yl)piperidin-4-yl)(phenyl)methyl)cyclopentyl acetate] | No inhibition

Same assay, conditions: FP competitive binding; menin protein 4 nM, FAM-MM2 probe 2 nM; read-out: Menin Binding Affinity IC50

Row | SMILES | IC50 [nM]
3 | CS(=O)(=O)c1ccc(OCCCN2CCC(C3(C4CCCC4)NCCc4ccccc43)CC2)cc1 (stereo not drawn) [compound 296, 1-cyclopentyl-1-(1-(3-(4-(methylsulfonyl)phenoxy)propyl)piperidin-4-yl)-1,2,3,4-tetrahydroisoquinoline] | 400
4 | N#Cc1ccc(NCCCN2CCC(C3(C4CCCC4)NCCc4ccccc43)CC2)cc1 (stereo not drawn) [compound 58, 4-((3-(4-(1-cyclopentyl-1,2,3,4-tetrahydroisoquinolin-1-yl)piperidin-1-yl)propyl)amino)benzonitrile] | 241
5 | N#Cc1ccc(OCCCN2CCC(C3NCCc4ccccc43)CC2)cc1 (stereo not drawn) [compound 305, 4-(3-(4-(1,2,3,4-tetrahydroisoquinolin-1-yl)piperidin-1-yl)propoxy)benzonitrile] | 42100
6 | CC(=O)O[C@H]1CCC[C@@H]1C(C#N)(c1ccccc1)C1CCN(CC2CN(c3ccc(S(C)(=O)=O)cc3)C2)CC1 (mixture of isomers) [compound 183, rac-(1S,2R)-2-(cyano(1-((1-(4-(methylsulfonyl)phenyl)azetidin-3-yl)methyl)piperidin-4-yl)(phenyl)methyl)cyclopentyl acetate] | 73
7 | O=S(=O)(c1ccc(O[C@H]2C[C@@H](N3CCC(C4(C5CCCC5)NCCc5ccccc54)CC3)C2)cc1)C1CC1 (stereo partly drawn) [compound 89, 1-cyclopentyl-1-(1-((1s,3s)-3-(4-(cyclopropylsulfonyl)phenoxy)cyclobutyl)piperidin-4-yl)-1,2,3,4-tetrahydroisoquinoline] | 13100
8 | c1ccc(OCCCN2CCC(C3(C4CCCC4)NCCc4ccccc43)CC2)cc1 (stereo not drawn) [compound 76, 1-cyclopentyl-1-(1-(3-phenoxypropyl)piperidin-4-yl)-1,2,3,4-tetrahydroisoquinoline] | 1300
9 | CC(=O)O[C@H]1CCC[C@@H]1C(C#N)(c1cccc(C(F)(F)F)c1)C1CCN(CC2CN(c3ccc(C#N)cc3)C2)CC1 (mixture of isomers) [compound 417, rac-(1S,2R)-2-(cyano(1-((1-(4-cyanophenyl)azetidin-3-yl)methyl)piperidin-4-yl)(3-(trifluoromethyl)phenyl)methyl)cyclopentyl acetate] | 1610
10 | CNC(=O)O[C@H]1CCC[C@@H]1C(C#N)(c1ccccc1)C1CCN(CC2CN(c3ccc(S(=O)(=O)C4CC4)cc3)C2)CC1 (mixture of isomers) [compound 226, rac-(1S,2R)-2-(cyano(1-((1-(4-(cyclopropylsulfonyl)phenyl)azetidin-3-yl)methyl)piperidin-4-yl)(phenyl)methyl)cyclopentyl methylcarbamate] | 14
11 | N#Cc1ccc(OCCCN2CCC(C3(c4ccccc4)NCCc4ccccc43)CC2)cc1 (stereo not drawn) [compound 246, 4-(3-(4-(1-phenyl-1,2,3,4-tetrahydroisoquinolin-1-yl)piperidin-1-yl)propoxy)benzonitrile] | 35600
12 | COC(=O)N1Cc2ccccc2C(C2CCN(CCCOc3ccc(C#N)cc3)CC2)([C@H]2CCC[C@@H]2OC)C1 (mixture of isomers) [compound 324, methyl rac-4-(1-(3-(4-cyanophenoxy)propyl)piperidin-4-yl)-4-((1R,2S)-2-methoxycyclopentyl)-3,4-dihydroisoquinoline-2(1H)-carboxylate] | 9600
